According to patent US20230172205A1 (priority 2020, published 2023):
Like-named read-outs stand apart in the source and are kept apart here.

Assays:
[1] = test system: Phakopsora pachyrhizi, strain with amino acid substitution F129L in the mitochondrial cytochrome b protein; assay: Protective control of soybean rust on soybeans (PHAKPA P6); type: in vivo; details: for % PHAKPA (F129L) Disease level, P6 at 4 ppm: protective P6, 4 ppm; for % PHAKPA (F129L) Disease level, P6 at 4 ppm / % PHAKPA (F129L) Disease level, P6 at 16 ppm: soybean rust F129L strain; for % PHAKPA (F129L) Disease level, P6 at 16 ppm: protective P6, 16 ppm
Pyricularia oryzae = assay: microbe, parasite or virus in culture; type: cell-based; details: for activity at 0.016 ppm: Pyricularia oryzae, 168 h, read-out: Fungal growth (%) PYRIOR
[2] = test system: Alternaria solani, Qo inhibitor-resistant isolate containing F129L in the mitochondrial cytochrome b protein; assay: Micro titer plate test, activity against Alternaria solani causing early blight (ALTESO), F129L; type: cell-based; details: for activity at 0.016 ppm: Alternaria solani, 168 h
[3] = test system: Phakopsora pachyrhizi, strain with amino acid substitution F129L in the mitochondrial cytochrome b protein; assay: Protective control of soybean rust on soybeans (PHAKPA P2); type: in vivo; details: for % PHAKPA (F129L) Disease level, P2 at 4 ppm: protective P2, 4 ppm; for % PHAKPA (F129L) Disease level, P2 at 4 ppm / % PHAKPA (F129L) Disease level, P2 at 16 ppm: soybean rust F129L strain; for % PHAKPA (F129L) Disease level, P2 at 16 ppm: protective P2, 16 ppm
[4] = test system: Phakopsora pachyrhizi, isolate with amino acid substitution F129L in the mitochondrial cytochrome b protein; assay: Protective control of soybean rust on detached soybean leaves (PHAKPA P1 DL), F129L isolate; type: in vivo; details: Table C6b
Microdochium nivale = assay: microbe, parasite or virus in culture; type: cell-based; details: 168 h, read-out: Fungal growth (%) MONGNI
[5] = test system: Alternaria solani, sensitive wild-type isolate (wt); assay: microbe, parasite or virus in culture; type: cell-based; details: 168 h, read-out: Fungal growth (%) ALTESO wt
[6] = test system: Phakopsora pachyrhizi, isolate sensitive to Qo inhibitors (wt); assay: Protective control of soybean rust on detached soybean leaves (PHAKPA P1 DL), wt isolate; type: in vivo; details: Table C6a
Septoria tritici = assay: microbe, parasite or virus in culture; type: cell-based; details: Zymoseptoria tritici, 168 h, read-out: Fungal growth (%) SEPTTR
[7] = test system: Colletotrichum orbiculare; assay: microbe, parasite or virus in culture; type: cell-based; details: 168 h, read-out: Fungal growth (%) COLLLA
[8] = Table C2, protective, inoculation six days after spraying, 4 ppm, % diseased leaf area on soybean, untreated 99

SMILES: CNC(=O)/C(=N/OC)c1cccc(C)c1CO/N=C(\C)c1cccc(C(F)(F)F)c1 [Ex. 8]
- PHAKPA (F129L) Disease level (%) P6 at 4 ppm ([1]; P6 at 4 ppm, untreated 75%): 1%
- PHAKPA (F129L) Disease level (%) P6 at 4 ppm [1, 8]: 13%
- Fungal growth (%) PYRIOR (Pyricularia oryzae; Table C11a, 0.016 ppm): 13%
- Fungal growth (%) ALTESO F129L ([2]; Table C11a, 0.016 ppm): 52%

SMILES: CNC(=O)/C(=N/OC)c1cccc(C)c1CO/N=C(\C)c1ccc(Cl)cc1 [Ex. 158]
- PHAKPA (F129L) Disease level (%) P2 at 4 ppm ([3]; Table C2, protective, inoculation 2 days after spraying, 4 ppm, % diseased leaf area on soybean, untreated 100): 1%
- % PHAKPA (F129L) Disease level, P2 at 4 ppm [3]: 0%
- % PHAKPA (F129L) Disease level, P2 at 16 ppm [3]: 0%
- PHAKPA P1 DL Disease level (%), Qo I-resistant F129L isolate (100% F129L) ([4]; 0.3 ppm, 0 ppm control 93): 87%
- PHAKPA P1 DL Disease level (%), Qo I-resistant F129L isolate (100% F129L) ([4]; 1 ppm): 57%
- PHAKPA P1 DL Disease level (%), Qo I-resistant F129L isolate (100% F129L) ([4]; 3 ppm): 8%
- PHAKPA P1 DL Disease level (%), Qo I-resistant F129L isolate (100% F129L) ([4]; 10 ppm): 2%
- PHAKPA P1 DL Disease level (%), Qo I-resistant F129L isolate (100% F129L) ([4]; 30 ppm): 4%
- PHAKPA P1 DL Disease level (%), Qo I-resistant F129L isolate (100% F129L) ([4]; 100 ppm): 4%
- PHAKPA P1 DL Disease level (%), Qo I-resistant F129L isolate (100% F129L) ([4]; 300 ppm): 5%
- PHAKPA (F129L) Disease level (%) P6 at 4 ppm [1, 8]: 4%
- % PHAKPA (F129L) Disease level, P6 at 4 ppm [1]: 2%
- % PHAKPA (F129L) Disease level, P6 at 16 ppm [1]: 0%
- activity at 0.016 ppm (Microdochium nivale): 71%
- activity at 0.016 ppm (Pyricularia oryzae): 38%
- activity at 0.016 ppm ([2]; Table C5, read-out: Fungal growth (%) ALTESO F129L): 79%
- activity at 0.016 ppm [5]: 66%
- PHAKPA P1 DL Disease level (%), Qo I-sensitive wt isolate (0% F129L) ([6]; 0.3 ppm, 0 ppm control 93): 38%
- PHAKPA P1 DL Disease level (%), Qo I-sensitive wt isolate (0% F129L) ([6]; 1 ppm): 7%
- PHAKPA P1 DL Disease level (%), Qo I-sensitive wt isolate (0% F129L) ([6]; 3 ppm): 2%
- PHAKPA P1 DL Disease level (%), Qo I-sensitive wt isolate (0% F129L) ([6]; 10 ppm): 1%
- PHAKPA P1 DL Disease level (%), Qo I-sensitive wt isolate (0% F129L) ([6]; 30 ppm): 4%
- PHAKPA P1 DL Disease level (%), Qo I-sensitive wt isolate (0% F129L) ([6]; 100 ppm): 5%
- PHAKPA P1 DL Disease level (%), Qo I-sensitive wt isolate (0% F129L) ([6]; 300 ppm): 4%

SMILES: CNC(=O)/C(=N/OC)c1cccc(C)c1CO/N=C(\C)c1cccc(C)c1 [Ex. 77]
- PHAKPA (F129L) Disease level (%) P2 at 4 ppm ([3]; P2 at 4 ppm, untreated 92%): 37%
- % PHAKPA (F129L) Disease level, P2 at 4 ppm [3]: 67%
- % PHAKPA (F129L) Disease level, P2 at 16 ppm [3]: 4%
- PHAKPA (F129L) Disease level (%), P6 at 16 ppm ([1]; P6 at 16 ppm, untreated 75%): 20%
- % PHAKPA (F129L) Disease level, P6 at 4 ppm [1]: 40%
- % PHAKPA (F129L) Disease level, P6 at 16 ppm [1]: 3%
- activity at 0.016 ppm (Pyricularia oryzae): 20%
- activity at 0.016 ppm ([2]; Table C14, read-out: Fungal growth (%) ALTESO F129L): 69%
- activity at 0.25 ppm (Septoria tritici): 49%
- activity at 0.063 ppm [7]: 39%
- activity at 0.016 ppm [5]: 73%
